Test results as given in article PMC9828300 (2022).

Key:
[1] = test system: Olig (oligonucleotide fragment of the UCP1 gene promoter; Oligo) (DNA, G4) CGAGGGTGGGTAGGAGGGGACGCGGGGACT; experiment: UV-vis absorption; details: 100 mM KCl; 10 mM Tris-HCl pH 7.4, 25°C; 6 μM DNA, 24 μM berberine; ~45% hypochromicity, 340 to 348 nm
[2] = test system: Olig (oligonucleotide fragment of the UCP1 gene promoter; Oligo) (DNA, G4) CGAGGGTGGGTAGGAGGGGACGCGGGGACT; experiment: fluorescence enhancement; details: 100 mM KCl; 10 mM Tris-HCl pH 7.4, 25°C; 6 μM DNA, 24 μM berberine; excitation 280 nm
[3] = test system: Olig (oligonucleotide fragment of the UCP1 gene promoter; Oligo) (DNA, G4) CGAGGGTGGGTAGGAGGGGACGCGGGGACT; experiment: native gel electrophoresis; details: 100 mM KCl; 10 mM Tris-HCl pH 7.4, 4°C overnight; 6 μM DNA, 24 μM berberine; Uni-G4 to Tetra-G4

- binding [1]: yes
- binding [2]: yes
- binding [3]: yes
Structure (SMILES): COc1ccc2cc3[n+](cc2c1OC)CCc1cc2c(cc1-3)OCO2
